Experimental data reported in ChEMBL document CHEMBL3120075 (J Med Chem, 2014).

Columns and labels:
Hepatitis C virus [1] = assay: Antiviral activity against HCV genotype 1a H77 infected in human HuH7 cells assessed as inhibition of viral RNA replication after 3 days by renilla luciferase reporter gene assay; format: functional, organism-based, Hepacivirus hominis; conditions: genotype 1a H77, Huh-7, 72 h
Hepatitis C virus [2] = assay: Antiviral activity against HCV genotype 1b Con1 infected in human HuH7 cells assessed as inhibition of viral RNA replication after 3 days by renilla luciferase reporter gene assay; format: functional, organism-based, Hepacivirus hominis; conditions: isolate Con1, Huh-7, 72 h
[3] = Ratio of EC50 for HCV genotype 1a to EC50 for HCV genotype 1b; format: functional
Hepatitis C virus [4] = assay: Antiviral activity against HCV genotype 1a H77 infected in human HuH7 cells assessed as inhibition of viral RNA replication after 3 days by renilla luciferase reporter gene assay in presence of 10% BSA; format: functional, organism-based, Hepacivirus hominis; conditions: genotype 1a H77, Huh-7, 72 h
Hepatitis C virus [5] = assay: Ratio of EC50 for HCV genotype 1a H77 infected in human HuH7 cells in presence of 10% BSA to EC50 for HCV genotype 1a H77 infected in human HuH7 cells; format: functional, Hepacivirus hominis, Huh-7
Hepatitis C virus [6] = assay: Ratio of EC50 for HCV genotype 1a H77 infected in human HuH7 cells in presence of human serum to EC50 for HCV genotype 1a H77 infected in human HuH7 cells; format: functional, Hepacivirus hominis, Huh-7
Hepatitis C virus [7] = assay: Antiviral activity against HCV genotype 1a H77 infected in human HuH7 cells assessed as inhibition of viral RNA replication after 3 days by renilla luciferase reporter gene assay in presence of human serum; format: functional, organism-based, Hepacivirus hominis; conditions: genotype 1a H77, Huh-7, 72 h
[8] = Volume of distribution at steady state in Sprague-Dawley rat at 1 mg/kg, iv; format: ADME, organism-based; set-up: dose 1 mg/kg, route intravenous; conditions: in vivo, read-out: Vdss
[9] = Mean residence time in beagle dog at 0.2 mg/kg, iv; format: ADME, organism-based, Canis lupus familiaris; set-up: dose 0.2 mg/kg, route intravenous; conditions: in vivo
[10] = Clearance in beagle dog at 0.2 mg/kg, iv; format: ADME, organism-based, Canis lupus familiaris; set-up: dose 0.2 mg/kg, route intravenous; conditions: in vivo
[11] = Half life in Sprague-Dawley rat at 1 mg/kg, iv; format: ADME, organism-based; set-up: dose 1 mg/kg, route intravenous; conditions: in vivo
[12] = Volume of distribution at steady state in beagle dog at 0.2 mg/kg, iv; format: ADME, organism-based, Canis lupus familiaris; set-up: dose 0.2 mg/kg, route intravenous; conditions: in vivo, read-out: Vdss
[13] = Clearance in Sprague-Dawley rat at 1 mg/kg, iv; format: ADME, organism-based; set-up: dose 1 mg/kg, route intravenous; conditions: in vivo
[14] = Half life in beagle dog at 0.2 mg/kg, iv; format: ADME, organism-based, Canis lupus familiaris; set-up: dose 0.2 mg/kg, route intravenous; conditions: in vivo
[15] = Mean residence time in Sprague-Dawley rat at 1 mg/kg, iv; format: ADME, organism-based; set-up: dose 1 mg/kg, route intravenous; conditions: in vivo
[16] = Oral bioavailability in Sprague-Dawley rat at 2 mg/kg; format: ADME, organism-based; conditions: in vivo

| Compound | EC50 (Hepatitis C virus [1]) [nM] | EC50 (Hepatitis C virus [2]) [nM] | other results |
| --- | --- | --- | --- |
| COC(=O)N[C@H](C(=O)N1CCC[C@H]1c1nc2ccc(-c3cc4cc5sc(-c6ccc7nc([C@@H]8CCCN8C(=O)[C@@H](NC(=O)OC)C(C)C)[nH]c7c6)cc5cc4s3)cc2[nH]1)C(C)C | 0.2 | 0.016 | – |
| COC(=O)N[C@H](C(=O)N1CCC[C@H]1c1ncc(-c2ccc3c(c2)C(C)(C)c2cc(-c4cnc([C@@H]5CCCN5C(=O)[C@@H](NC(=O)OC)C(C)C)[nH]4)ccc2-3)[nH]1)C(C)C | 1.2 | 0.014 | – |
| COC(=O)N[C@H](C(=O)N1CCC[C@H]1c1nc(-c2ccc3cc(-c4ccc5[nH]c([C@@H]6CCCN6C(=O)[C@@H](NC(=O)OC)C(C)C)nc5c4)ccc3c2)c[nH]1)C(C)C | 0.071 | 0.007 | – |
| C[C@H](NC(=O)OCc1ccccc1)C(=O)Nc1cccc(C2S/C(=N\c3cccc(F)c3)N(Cc3ccco3)C2=O)c1 (stereo not given in full) | – | 580 | Ratio EC50 [3]: 1000 |
| COC(=O)N[C@H](C(=O)N1CCC[C@H]1c1nc2ccc(-c3ccc4cc(-c5ccc6nc([C@@H]7CCCN7C(=O)[C@@H](NC(=O)OC)C(C)C)[nH]c6c5)ccc4c3)cc2[nH]1)C(C)C | 0.11 | 0.004 | – |
| O=C(Nc1ccncc1)c1ccc(-c2csc(NC(=O)[C@@H]3CCCN3C(=O)OCc3ccccc3)n2)cc1 | – | 80 | Ratio EC50 [3]: 1000 |
| COC(=O)N[C@H](C(=O)N1CCC[C@H]1c1nc2ccc(C#CC#Cc3ccc4nc([C@@H]5CCCN5C(=O)[C@@H](NC(=O)OC)C(C)C)[nH]c4c3)cc2[nH]1)C(C)C | 11 | 0.026 | – |
| COC(=O)N[C@H](C(=O)N1CCC[C@H]1c1ncc(-c2ccc3c(c2)Cc2cc(-c4cnc([C@@H]5CCCN5C(=O)[C@@H](NC(=O)OC)C(C)C)[nH]4)ccc2-3)[nH]1)C(C)C | 0.094 | 0.013 | – |
| Cc1ccc(O)c(-c2nn(C)cc2C#Cc2ccc(NC(=O)[C@@H]3COCCN3C(=O)[C@H](NC(=O)OC(C)(C)C)c3ccccc3)cc2)c1 | – | < 1000 | Ratio EC50 [3]: 1000 |
| COC(=O)N[C@H](C(=O)N1CCC[C@H]1c1ncc(-c2ccc(C#Cc3ccc4nc([C@@H]5CCCN5C(=O)[C@@H](NC(=O)OC)C(C)C)[nH]c4c3)cc2)[nH]1)C(C)C | 0.38 | 0.011 | – |
| COC(=O)N[C@H](C(=O)N1CCC[C@H]1c1nc2ccc(C#Cc3ccc4nc([C@@H]5CCCN5C(=O)[C@@H](NC(=O)OC)C(C)C)[nH]c4c3)cc2[nH]1)C(C)C | > 44 | 0.14 | – |
| COC(=O)N[C@H](C(=O)N1CCC[C@H]1c1nc2ccc(-c3ccc4nc([C@@H]5CCCN5C(=O)[C@@H](NC(=O)OC)C(C)C)[nH]c4c3)cc2[nH]1)C(C)C | > 44 | 35 | – |
| COC(=O)N[C@H](C(=O)N1CCC[C@H]1c1ncc(C#Cc2ccc(-c3ccc4nc([C@@H]5CCCN5C(=O)[C@@H](NC(=O)OC)C(C)C)[nH]c4c3)cc2)[nH]1)C(C)C | 2.5 | 0.016 | – |
| COC(=O)N[C@H](C(=O)N1CCC[C@H]1c1ncc(-c2ccc3c(c2)C(=O)c2cc(-c4cnc([C@@H]5CCCN5C(=O)[C@@H](NC(=O)OC)C(C)C)[nH]4)ccc2-3)[nH]1)C(C)C | 0.3 | 0.018 | – |
| CN(C)[C@@H](C(=O)N1CCC[C@H]1C(=O)Nc1ccc(/C=C/c2ccc(NC(=O)[C@@H]3CCCN3C(=O)[C@@H](c3ccccc3)N(C)C)cc2)cc1)c1ccccc1 | – | 0.1 | – |
| COC(=O)N[C@H](C(=O)N1CCC[C@H]1c1nc2ccc(-c3ccc(-c4ccc5nc([C@@H]6CCCN6C(=O)[C@@H](NC(=O)OC)C(C)C)[nH]c5c4)s3)cc2[nH]1)C(C)C | 1.7 | 0.01 | – |
| C[C@H](NC(=O)c1ccc(Sc2ccc(N)cc2)c(Nc2ncnc3nc(C(C)(C)C)ccc23)c1)c1ccccc1 | 46 | 3 | – |

Continued, in another order:

| EC50 (Hepatitis C virus [1]) [nM] | EC50 (Hepatitis C virus [2]) [nM] | Compound | other results |
| --- | --- | --- | --- |
| 0.2 | 0.003 | COC(=O)N[C@H](C(=O)N1CCC[C@H]1c1ncc(-c2ccc(-c3ccc(-c4ccc5nc([C@@H]6CCCN6C(=O)[C@@H](NC(=O)OC)C(C)C)[nH]c5c4)s3)cc2)[nH]1)C(C)C | – |
| > 44 | 0.3 | COC(=O)N[C@H](C(=O)N1CCC[C@H]1c1ncc(-c2ccc(-c3ccc4nc([C@@H]5CCCN5C(=O)[C@@H](NC(=O)OC)C(C)C)[nH]c4c3)cc2)[nH]1)C(C)C | – |
| 0.45 | 0.005 | COC(=O)N[C@H](C(=O)N1CCCC[C@H]1c1ncc(-c2ccc(-c3ccc(-c4cnc([C@@H]5CCCN5C(=O)[C@@H](NC(=O)OC)C(C)C)[nH]4)cc3)cc2)[nH]1)C(C)C | – |
| 0.056 | 0.004 | COC(=O)N[C@H](C(=O)N1CCC[C@H]1c1ncc(-c2ccc3c(c2)C(F)(F)c2cc(-c4ccc5nc([C@@H]6[C@H]7CC[C@H](C7)N6C(=O)[C@@H](NC(=O)OC)C(C)C)[nH]c5c4)ccc2-3)[nH]1)C(C)C | EC50 (Hepatitis C virus [4]): 0.784 nM; Ratio EC50 (Hepatitis C virus [5]): 14; Ratio EC50 (Hepatitis C virus [6]): 14; EC50 (Hepatitis C virus [7]): 0.784 nM |
| 0.21 | 0.009 | COC(=O)N[C@H](C(=O)N1CCC[C@H]1c1ncc(-c2ccc(-c3ccc(-c4cnc([C@@H]5[C@H]6CC[C@H](C6)N5C(=O)[C@@H](NC(=O)OC)C(C)C)[nH]4)cc3)cc2)[nH]1)C(C)C | Vd [8]: 0.98 L/kg; MRT [9]: 6.6 h; clearance [10]: 0.05 L/h/kg; half-life [11]: 1.49 h; Vd [12]: 0.31 L/kg; clearance [13]: 0.7 L/h/kg; half-life [14]: 5.29 h; MRT [15]: 1.4 h; bioavailability [16]: 35.2% |
| 0.17 | 0.007 | COC(=O)N[C@H](C(=O)N1CCC[C@H]1c1ncc(-c2ccc(-c3ccc(-c4ccc5nc([C@@H]6CCCN6C(=O)[C@@H](NC(=O)OC)C(C)C)[nH]c5c4)cc3)cc2)[nH]1)C(C)C | Vd [8]: 1.76 L/kg; MRT [9]: 3 h; clearance [10]: 0.78 L/h/kg; half-life [11]: 1.57 h; Vd [12]: 2.31 L/kg; clearance [13]: 1.04 L/h/kg; half-life [14]: 2.3 h; MRT [15]: 1.71 h; bioavailability [16]: 11.5% |
| 3.7 | 0.044 | COC(=O)N[C@H](C(=O)N1CCC[C@H]1c1nc2ccc(-c3ccc(-c4ccc(-c5ccc6nc([C@@H]7CCCN7C(=O)[C@@H](NC(=O)OC)C(C)C)[nH]c6c5)cc4)cc3)cc2[nH]1)C(C)C | – |
| 0.04 | 0.003 | COC(=O)N[C@H](C(=O)N1CCC[C@H]1c1ncc(-c2ccc3c(c2)C(F)(F)c2cc(-c4ccc5nc([C@@H]6CCCN6C(=O)[C@@H](NC(=O)OC)C(C)C)[nH]c5c4)ccc2-3)[nH]1)C(C)C | Vd [8]: 0.93 L/kg; MRT [9]: 3.69 h; clearance [10]: 0.53 L/h/kg; half-life [11]: 1.83 h; Vd [12]: 1.96 L/kg; clearance [13]: 0.42 L/h/kg; half-life [14]: 2.63 h; MRT [15]: 2.21 h; bioavailability [16]: 36.7% |
| 0.66 | 0.021 | COC(=O)N[C@H](C(=O)N1CCC[C@H]1c1nc2ccc(-c3ccc(-c4ccc(-c5cnc([C@@H]6[C@H]7CC[C@H](C7)N6C(=O)[C@@H](NC(=O)OC)C(C)C)[nH]5)cc4)cc3)cc2[nH]1)C(C)C | – |
| 0.16 | 0.006 | COC(=O)N[C@H](C(=O)N1CCC[C@H]1c1ncc(-c2ccc(-c3ccc(-c4ccc5nc([C@@H]6[C@H]7CC[C@H](C7)N6C(=O)[C@@H](NC(=O)OC)C(C)C)[nH]c5c4)cc3)cc2)[nH]1)C(C)C | Vd [8]: 1.81 L/kg; MRT [9]: 5.47 h; clearance [10]: 0.4 L/h/kg; half-life [11]: 2.07 h; Vd [12]: 2.03 L/kg; clearance [13]: 0.75 L/h/kg; half-life [14]: 4.01 h; MRT [15]: 2.42 h; bioavailability [16]: 26.3% |
| 0.5 | 0.009 | COC(=O)N[C@H](C(=O)N1CCC[C@H]1c1nc2ccc(-c3ccc(-c4ccc5nc([C@@H]6CCCN6C(=O)[C@@H](NC(=O)OC)C(C)C)[nH]c5c4)cc3)cc2[nH]1)C(C)C | – |
